Test results reported in patent US5395609A, “Synthetic peptides for use in tumor detection” (Antisoma Limited, priority 1989, dated 1995).
No end group written: not given here.

Tested on: metastatic lesions of pelvic melanoma
Test: Imaging of metastatic lesions in a human patient with pelvic melanoma after intravenous radiolabelled peptide
Type: in vivo
Description: 100 micrograms of the peptide […] labelled with technetium were administered intravenously as one single dose to a human patient with a pelvic melanoma which has metastrasised to the liver.

Question: With “RGDSCRGDSY labelled with technetium: peptide RGDSCRGDSY labelled with technetium (also: labelled with technetium)” as the sequence, how does the “uptake of radiolabelled peptide at metastatic lesions, early view” value (100 micrograms i.v. single dose, FIG. 2) read?
Answer: Its value is “various sites of uptake (arrow) which correspond to the known metastatic lesions”.

Question: And the “retention of radiolabelled peptide by metastatic lesions” value (100 micrograms i.v., one hour later, FIG. 3)?
Answer: The value was “retention of the radiolabelled peptide by the metastatic lesions”.
